Two molecules from US5444155A, “Molecules with antibody combining sites that induce asymmetry” (The Scripps Research Institute, priority 1991, dated 1995) can be followed below.

The test system of experiment [1] is monoclonal antibody (catalytic receptor) produced by hybridoma 37E8, ATCC HB 10868. It is filed as biochemical, mouse.
For experiment [2], the target named is Acetyl Cholinesterase EC 3.1.1.7, Type VS, electric eel (Sigma) (Electrophorus electricus, UniProt O42275). The experiment in a line: Hydrolysis of Compound 1 by authentic acetyl cholinesterase, assayed by gas chromatography.
Chain of Acetyl Cholinesterase EC 3.1.1.7, Type VS, electric eel (Sigma) (O42275 24-633): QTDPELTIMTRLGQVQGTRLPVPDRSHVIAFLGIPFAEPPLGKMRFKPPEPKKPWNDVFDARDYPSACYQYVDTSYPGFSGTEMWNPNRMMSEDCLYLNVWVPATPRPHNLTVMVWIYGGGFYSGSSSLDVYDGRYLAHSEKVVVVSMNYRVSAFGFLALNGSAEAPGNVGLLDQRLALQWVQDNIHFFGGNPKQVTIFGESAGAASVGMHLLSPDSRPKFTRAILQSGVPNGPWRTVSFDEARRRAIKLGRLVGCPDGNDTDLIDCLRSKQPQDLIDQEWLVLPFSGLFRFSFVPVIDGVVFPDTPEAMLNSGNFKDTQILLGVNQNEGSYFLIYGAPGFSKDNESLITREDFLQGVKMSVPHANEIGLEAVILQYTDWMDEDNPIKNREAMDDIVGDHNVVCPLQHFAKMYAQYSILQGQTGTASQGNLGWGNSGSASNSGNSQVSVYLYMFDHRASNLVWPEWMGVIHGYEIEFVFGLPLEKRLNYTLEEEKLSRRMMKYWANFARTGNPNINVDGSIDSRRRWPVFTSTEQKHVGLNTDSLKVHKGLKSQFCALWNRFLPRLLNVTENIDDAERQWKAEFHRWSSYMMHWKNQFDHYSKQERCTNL
The target in experiment [3] is T1, Butyl Cholinesterase EC 3.1.1.8, from horse serum (Sigma) (Equus caballus, UniProt P81908).
T1 construct: purchased Sigma Chemical Co., St. Louis
T1 sequence (P81908 whole entry): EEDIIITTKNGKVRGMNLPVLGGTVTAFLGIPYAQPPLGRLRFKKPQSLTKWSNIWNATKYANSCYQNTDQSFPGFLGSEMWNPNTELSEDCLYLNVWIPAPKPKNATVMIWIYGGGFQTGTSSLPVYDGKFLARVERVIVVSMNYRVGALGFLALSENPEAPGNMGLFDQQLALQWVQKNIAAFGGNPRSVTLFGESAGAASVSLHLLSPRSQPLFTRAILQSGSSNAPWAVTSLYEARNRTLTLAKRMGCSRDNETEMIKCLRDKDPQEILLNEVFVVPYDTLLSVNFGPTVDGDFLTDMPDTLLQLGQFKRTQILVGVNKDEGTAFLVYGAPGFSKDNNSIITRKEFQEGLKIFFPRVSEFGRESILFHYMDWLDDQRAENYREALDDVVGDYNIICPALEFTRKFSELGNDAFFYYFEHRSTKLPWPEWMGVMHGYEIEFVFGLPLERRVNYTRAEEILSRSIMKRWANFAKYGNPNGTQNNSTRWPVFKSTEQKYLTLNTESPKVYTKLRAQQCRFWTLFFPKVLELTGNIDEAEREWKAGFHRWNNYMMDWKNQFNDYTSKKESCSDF
In words: Hydrolysis of Compound 1 by authentic butyl cholinesterase, assayed by gas chromatography. It counts as biochemical. Here is the method: The production of Compound 2 by a monoclonal antibody composition of this invention was assayed at a concentration of 10 μM monoclonal antibody and 1 mM Compound 1 in pH 8.0 ATE buffer (0.52M ACES, 0.52M Tris, 0.01M ethanolamine) at 37° C. The initial rate of hydrolysis of Compound 1 by the monoclonal antibodies produced by hybridoma 37E8 followed Michaelis-Menten kinetics (Table 1 hereinafter).
The conditions used for this study were as follows. Monoclonal antibodies produced by hybridoma 37E8 (10 μM) were added to a solution of 800 μM Compound 1 and 25 μM Compound C. Under these conditions, the substrate concentration was at saturation for the monoclonal antibody (4.5Km) and at approximately Km for either cholinesterase.
^b EC 3.1.1.8. From horse serum (Sigma Chemical Co., St. Louis),
All assays consisted of determining the amount of Compound 2 by gas chromatography analysis (Hewlett Packard 5890A, carbowax 30 m, 0.53 mm bore, capillary column) with ethyl levulinate as an internal standard.

Read-outs that look alike come from different tables or passages of the source.

A word on the Km: it is the substrate concentration at which the rate is half of its maximum. Broadly, the Ki is a measure of affinity in units of concentration, obtained from inhibition or displacement.

In the case of `CC(=O)O[C@@H]1C=C[C@H](OC(C)=O)C1` [Compound 1, cis-3,5-diactoxycyclopent-1-ene], the “kcat (hydrolysis of Compound 1)” value in experiment [1] (pH 8) was 0.007. Besides, in experiment [1] (pH 8, read-out: Km (hydrolysis of Compound 1)), the Km is 177 µM.

Regarding `CC(=O)O[C@H]1C=C[C@@H](OP(=O)(O)CCCCCC(=O)O)C1` [Compound C], the Ki in experiment [2] came to 630 µM; in experiment [1] (read-out: Ki (free Compound C)), 7 µM; in experiment [1] (read-out: ki (inhibition of hydrolysis of Compound 1 by free Compound C)) it was 7 µM; in experiment [3] (0.0117 units enzyme used, read-out: ki (hydrolysis of Compound 1, inhibitor Compound C)), 800 µM. In addition, the “inhibition by free Compound C” value in experiment [2] is listed as “no inhibition”; in experiment [3] (800 μM Compound 1, 25 μM Compound C), “no inhibition”. In experiment [1], the “inhibition of the hydrolytic reaction by free Compound C” value is reported as “extensive inhibition”.
